Source: patent publication EP4549424A1, “NEW LITHIUM EXTRACTING AGENT AND LIQUID ORGANIC MIXTURE THEREOF, AND METHOD FOR EXTRACTING LITHIUM BY MEANS OF EXTRACTION” (Beijing Salt Lake Technology Development Company Limited, priority 2022, dated 2024)
Values after ≈ are worked out from the molar mass of the structure shown. Where two headings read alike, the source gives them in different places. Values belong to the molecule of their own block, whether it stands above or below them.

Tests used:
[1] = pH of aqueous phase after extraction or stripping
[2] = Liquid-liquid extraction from aqueous lithium-containing solution, ICP detection: potassium; conditions: organic phase and phase ratio per example;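 also: analysis by ICP optical emission spectrometry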
[3] = Liquid-liquid extraction from aqueous lithium-containing solution, ICP detection: sodium;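 also: sodium measured by inductively coupled plasma optical emission spectrometry in the diluted aqueous phase left after shaking with the organic phase and phase separation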
[4] = Liquid-liquid extraction from aqueous lithium-containing solution, ICP detection: lithium;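 also: component concentrations in the aqueous phase were measured by inductively coupled plasma optical emission spectrometry after shaking and phase separation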
[5] = room temperature; public literature (www.chemicalbook.com; J. Chem. Eng. Data 2008, 53, 8, 1996-1998); cited from earlier work
physchem = assay: physchem
Method: The solution loss rate is evaluated through solubility in water.

[6] = pH 11.48
[7] = pH 11.48; remark: listed apart in the source
[8] = feed B3 (cLi 0.937, cNa 119.10, cK 43.03 g/L, pH 9.60), organic phase and phase ratio per example
[9] = feed B1 (cLi 0.807, cNa 56.12 g/L, pH 11.48), organic phase and phase ratio per example
[10] = feed B7 (cLi 0.833, cNa 55.60, cK 5.37 g/L, pH 12.05), 26°C, organic phase and phase ratio per example
[11] = feed B4 (cLi 0.152, cNa 34.20, cK 2.36 g/L, pH 9.14), organic phase and phase ratio per example

- pH, remaining aqueous phase R1 ([1]; feed B3 (pH 9.60)): 8.66
Molecule: O=C(c1ccccc1)c1cc([N+](=O)[O-])c(OCc2ccccc2)cc1O [Example 12, 4-benzyloxy-5-nitro-2-hydroxydibenzophenone]
- extraction rate for potassium ions ([2]; feed B3 (cLi 0.937, cNa 119.10, cK 43.03 g/L, pH 9.60)): 8.3%
- extraction rate for sodium ions [3, 8]: 10.1%
- extraction rate for lithium ions [4, 8]: 85.7%
- separation factor of Li/K [4, 8]: 66.0
- separation factor of Li/Na [4, 8]: 53.4

Molecule: O=C(CC(=O)C(F)(F)F)c1ccccc1 [benzoyltrifluoroacetone]
- solubility in pure water [5]: 240 µg/mL (≈ 1110 µM)

- solubility in pure water (physchem): 10 µg/mL (≈ 26.9 µM)
Molecule: CCCCCCCCOc1cc(O)c(C(=O)c2ccccc2)cc1[N+](=O)[O-] [2-hydroxy-4-octyloxy-5-nitrodibenzophenone]

Molecule: 2-hydroxydibenzophenone [Example 1]
- cLi, remaining aqueous phase R1 [6]: 0.257 g/L
- pH, remaining aqueous phase R1 ([1]; feed B1 (pH 11.48)): 10.12
- cNa, remaining aqueous phase R1 [7]: 50.50 g/L
- extraction rate for sodium ions ([3]; pH 11.48): 10%
- extraction rate for lithium ions ([4]; pH 11.48): 68.2%
- separation factor of Li/Na ([4]; pH 11.48): 19.2

- solubility in pure water (physchem): 50 µg/mL (≈ 176 µM)
Molecule: CCCCCOc1ccc(C(=O)c2ccccc2)c(O)c1 [4-pentyloxy-2-hydroxydibenzophenone]

Molecule: 2-hydroxy-2-phenylacetophenone [Example 41]
- pH, remaining aqueous phase R1 ([1]; feed B1 (pH 11.48)): 10.1
- extraction rate for sodium ions [3, 9]: 11.8%
- extraction rate for lithium ions [4, 9]: 69.3%
- separation factor of Li/Na [4, 9]: 16.8

- pH, remaining aqueous phase R1 ([1]; feed B7 (pH 12.05)): 10.30
Molecule: 2-hydroxy-5-methoxyacetophenone [Example 30]
- extraction rate for potassium ions ([2]; feed B7 (cLi 0.833, cNa 55.60, cK 5.37 g/L, pH 12.05), 26°C): 7.08%
- extraction rate for sodium ions [3, 10]: 10.86%
- extraction rate for lithium ions [4, 10]: 60.26%
- separation factor of Li/Na [4, 10]: 12.4

- solubility (physchem; water): < 1000 µg/mL
Molecule: COc1ccc(C(=O)c2ccccc2)c(O)c1 [2-hydroxy-4-methoxydibenzophenone]

Molecule: O=C(c1ccccc1)c1ccc(O)cc1O [2,4-dihydroxydibenzophenone]
- solubility in pure water [5]: 700 µg/mL (≈ 3270 µM)

- solubility in pure water (physchem): 10 µg/mL (≈ 26.9 µM)
Molecule: CCCCCCCCOc1ccc(C(=O)c2ccccc2)c(O)c1[N+](=O)[O-] [4-octyloxy-3-nitro-2-hydroxydibenzophenone]

Molecule: 4-dodecyloxy-5-bromo-2-hydroxydibenzophenone [Example 14]
- extraction rate for potassium ions ([2]; feed B4 (cLi 0.152, cNa 34.20, cK 2.36 g/L, pH 9.14)): 25.0%
- extraction rate for sodium ions [3, 11]: 5.8%
- extraction rate for lithium ions [4, 11]: 48.7%
- separation factor of Li/K [4, 11]: 2.8
- separation factor of Li/Na [4, 11]: 15.3
